Values of other authors in patent US20080195230A1, “Pericardial tissue sheet” (priority 2007, published 2008).

Assays:
[1] = test system: Chinese hamster ovary (CHO-K1) cells; conditions: in vitro
[2] = test system: 3T3 fibroblasts; conditions: in vitro
[3] = test system: rabbit; conditions: i.v.

COC(=O)C1=CO[C@@H](O)[C@@H]2C(CO)=CC[C@H]12 [genipin]
genotoxicity (clastogenic response) [1]: does not cause clastogenic response | cytotoxicity compared with glutaraldehyde [2]: substantially less cytotoxic than glutaraldehyde

Deoxycholic acid
LD50 [3]: 15 mg/kg | solubility in organic solvents (alcohol, acetic acid, acetone): soluble in alcohol and to a lesser extent acetone and glacial acetic acid | solubility in water (water): sparingly soluble in water
